# What was measured:
# [1] = system: blood coagulation; experiment: Thrombin time (TT) on blood collected by cardiac puncture at sacrifice of I/R rats; format: in vivo, Male OFA Sprague-dawley rats; conditions: subcutaneous osmotic minipump, with reference to the mean value of sham animals
# Text: • Figure 1 is a combination of two graphs showing left atrium (LA) area after one month of treatment with DTI Dabigatran (A) or S35792 (B). Vehicle (V) is 60% H2O/40% PEG 300 for dabigatran and saline for S35972. Treatment of rats started just after thoracotomy without (Sham) or with occlusion of left coronary artery followed by reperfusion (I/R). […] Vehicle (V) is 60% H2O/40% PEG 300 for dabigatran and saline for S35972. Treatment of rats started just after thoracotomy without (Sham) or with occlusion of left coronary artery followed by reperfusion (I/R). Results are presented as mean +/- S.E.M. * P<0.05; ** P<0.001, *** P<0.001 vs Sham; #P<0.05 vs untreated I/R. • Figure 3 is a combination of two graphs showing thrombin time (TT), which reflects anticoagulant activity, and plasma concentrations of Dabigatran (A) and S35792 (B) in rats after throracotomy with occlusion of left coronary artery followed by reperfusion (I/R). Vehicle (V) is 60% H2O/40% PEG 300 for dabigatran and saline for S35972. […] DTI plasma levels are quantified using LC-MS/MS. TT are expressed as mean +/- S.E.M with reference to the mean value of sham animals that underwent thoracotomy only. *** P<0.001 vs untreated I/R. • Figure 4 is a combination of three graphs showing left atrium (LA) area (A) and diameter (B) and left ventricle end-diastolic (LVED) diameter (C) after two months of treatment with S35972. […] LA area was measured by bidimensional echocardiography. LA and LVED diameters were measured in time-motion mode. […] AF duration is measured as the time between the end of the electric stimulation and the return to sinusoidal rhythm. […] Expression of mRNA was measured with real-time qPCR. […] Expression of mRNA was measured with real-time qPCR. […] Expression of mRNA was measured with real-time qPCR. […] LA area was measured by bidimensional echocardiography. LVED and LA diameters were measured in time-motion mode. […] AF duration is measured as the time between the end of the electric stimulation and return to sinusoidal rhythm. […]
# [2] = system: paroxysmal AF; experiment: Duration of an AF episode induced by rapid stimulation of the left atrium with an esophageal electrode in I/R rats; format: in vivo, Male OFA Sprague-dawley rats; conditions: 6 mg/kg/day
# Text: • Figure 1 is a combination of two graphs showing left atrium (LA) area after one month of treatment with DTI Dabigatran (A) or S35792 (B). Vehicle (V) is 60% H2O/40% PEG 300 for dabigatran and saline for S35972. Treatment of rats started just after thoracotomy without (Sham) or with occlusion of left coronary artery followed by reperfusion (I/R). Results are presented as mean +/- S.E.M, *P<0.05, **P<0.01 and *** P<0.001 vs Sham; ^##P<0.01 and ^###P<0.001 vs untreated I/R. • Figure 2 is a combination of graphs showing left ventricular end-diastolic (LVED) diameter and fractional shortening (FS) after one month of treatment with Dabigatran (A) or S35792 (B). […] DTI plasma levels are quantified using LC-MS/MS. TT are expressed as mean +/- S.E.M with reference to the mean value of sham animals that underwent thoracotomy only. *** P<0.001 vs untreated I/R. • Figure 4 is a combination of three graphs showing left atrium (LA) area (A) and diameter (B) and left ventricle end-diastolic (LVED) diameter (C) after two months of treatment with S35972. […] LA area was measured by bidimensional echocardiography. LA and LVED diameters were measured in time-motion mode. […] AF duration is measured as the time between the end of the electric stimulation and the return to sinusoidal rhythm. […] Expression of mRNA was measured with real-time qPCR. […] Expression of mRNA was measured with real-time qPCR. […]
# [3] = system: ANP; experiment: mRNA expression by real-time qPCR in atria and ventricle of I/R rats; format: in vivo, Male OFA Sprague-dawley rats; conditions: 6 mg/kg/day, 2 months
# Text: (§1) • Figure 1 is a combination of two graphs showing left atrium (LA) area after one month of treatment with DTI Dabigatran (A) or S35792 (B). Vehicle (V) is 60% H2O/40% PEG 300 for dabigatran and saline for S35972. Treatment of rats started just after thoracotomy without (Sham) or with occlusion of left coronary artery followed by reperfusion (I/R). Results are presented as mean +/- S.E.M, *P<0.05, **P<0.01 and *** P<0.001 vs Sham; ^##P<0.01 and ^###P<0.001 vs untreated I/R. • Figure 2 is a combination of graphs showing left ventricular end-diastolic (LVED) diameter and fractional shortening (FS) after one month of treatment with Dabigatran (A) or S35792 (B). Vehicle (V) is 60% H2O/40% PEG 300 for dabigatran and saline for S35972. Treatment of rats started just after thoracotomy without (Sham) or with occlusion of left coronary artery followed by reperfusion (I/R). Results are presented as mean +/- S.E.M. * P<0.05; ** P<0.001, *** P<0.001 vs Sham; #P<0.05 vs untreated I/R. • Figure 3 is a combination of two graphs showing thrombin time (TT), which reflects anticoagulant activity, and plasma concentrations of Dabigatran (A) and S35792 (B) in rats after throracotomy with occlusion of left coronary artery followed by reperfusion (I/R). Vehicle (V) is 60% H2O/40% PEG 300 for dabigatran and saline for S35972. Tests were carried out on blood collected by cardiac puncture at sacrifice (i.e. for Dabigatran, 90 minutes after last oral administration). DTI plasma levels are quantified using LC-MS/MS. TT are expressed as mean +/- S.E.M with reference to the mean value of sham animals that underwent thoracotomy only. *** P<0.001 vs untreated I/R. • Figure 4 is a combination of three graphs showing left atrium (LA) area (A) and diameter (B) and left ventricle end-diastolic (LVED) diameter (C) after two months of treatment with S35972. Treatment of rats started just after thoracotomy without (Sham) or with occlusion of left coronary artery followed by reperfusion (I/R). LA area was measured by bidimensional echocardiography. LA and LVED diameters were measured in time-motion mode. Results are presented as mean +/- S.E.M. *P<0.05, **P<0.01 and *** P<0.001 vs Sham; ^#P<0.05 ^###P<0.001 vs untreated I/R. • Figure 5 is a graph showing the impact of S35972 administration during two months on the duration of an episode of AF in rats undergone thoracotomy without (Sham) or with occlusion of left coronary artery followed by reperfusion (I/R). AF duration is measured as the time between the end of the electric stimulation and the return to sinusoidal rhythm. Results are presented as mean +/- S.E.M, *P<0.05 vs Sham; ^##P<0.01 vs untreated I/R, • Figure 6 is a combination of graphs showing the impact of treatments with 25 mg/kg/d dabigatran for 4 weeks and 6 mg/kg/d S35972 for 8 weeks on atrial (A) and ventricular (B) expression of myosin heavy chain (MHC) isoforms. Rats undergone thoracotomy without (Sham) or with occlusion of left coronary artery followed by reperfusion (I/R). Expression of mRNA was measured with real-time qPCR. Results are presented as mean +/- S.E.M. *P<0.05, **P<0.01 vs Sham; #P<0.05 vs untreated I/R. • Figure 7 is a combination of graphs showing the impact of 2 months S35972 administration on the expression of the hypertrophic markers, brain and atrial natriuretic peptides (BNP and ANP) in atria (A) and ventricle (B). Rats undergone thoracotomy without (Sham) or with occlusion of left coronary artery followed by reperfusion (I/R). Expression of mRNA was measured with real-time qPCR. Results are presented as mean +/- S.E.M. *P<0.05, ***P<0.001 vs Sham; #P<0.05, ##P<0.01 vs untreated I/R. • Figure 8 is a combination of graphs showing the impact of 2 months S35972 administration on the expression of fibrotic markers, plasminogen activator inhibitor 1 (PAI-1, A) and heparin-binding epidermal growth factor (HB-EGF, B) in atria and ventricle. Rats undergone thoracotomy without (Sham) or with occlusion of left coronary artery followed by reperfusion (I/R). […]
# [4] = system: PAI-1; experiment: as above; format: in vivo, Male OFA Sprague-dawley rats; conditions: 2 months administration
# Text: as §1
# [5] = system: HB-EGF; experiment: as above; format: in vivo, Male OFA Sprague-dawley rats; conditions: 2 months administration
# Text: as §1
# [6] = system: BNP; experiment: as above; format: in vivo, Male OFA Sprague-dawley rats; conditions: 6 mg/kg/day, 2 months
# Text: as §1
# [7] = Plasma concentration by LC-MS/MS in I/R rats; parameters: species or system Male OFA Sprague-dawley rats; conditions: rat, in vivo, sc
# Text: • Figure 1 is a combination of two graphs showing left atrium (LA) area after one month of treatment with DTI Dabigatran (A) or S35792 (B). Vehicle (V) is 60% H2O/40% PEG 300 for dabigatran and saline for S35972. Treatment of rats started just after thoracotomy without (Sham) or with occlusion of left coronary artery followed by reperfusion (I/R). Results are presented as mean +/- S.E.M, *P<0.05, **P<0.01 and *** P<0.001 vs Sham; ^##P<0.01 and ^###P<0.001 vs untreated I/R. • Figure 2 is a combination of graphs showing left ventricular end-diastolic (LVED) diameter and fractional shortening (FS) after one month of treatment with Dabigatran (A) or S35792 (B). Vehicle (V) is 60% H2O/40% PEG 300 for dabigatran and saline for S35972. Treatment of rats started just after thoracotomy without (Sham) or with occlusion of left coronary artery followed by reperfusion (I/R). Results are presented as mean +/- S.E.M. * P<0.05; ** P<0.001, *** P<0.001 vs Sham; #P<0.05 vs untreated I/R. • Figure 3 is a combination of two graphs showing thrombin time (TT), which reflects anticoagulant activity, and plasma concentrations of Dabigatran (A) and S35792 (B) in rats after throracotomy with occlusion of left coronary artery followed by reperfusion (I/R). Vehicle (V) is 60% H2O/40% PEG 300 for dabigatran and saline for S35972. […] DTI plasma levels are quantified using LC-MS/MS. TT are expressed as mean +/- S.E.M with reference to the mean value of sham animals that underwent thoracotomy only. *** P<0.001 vs untreated I/R. • Figure 4 is a combination of three graphs showing left atrium (LA) area (A) and diameter (B) and left ventricle end-diastolic (LVED) diameter (C) after two months of treatment with S35972. […] LA area was measured by bidimensional echocardiography. LA and LVED diameters were measured in time-motion mode. […] AF duration is measured as the time between the end of the electric stimulation and the return to sinusoidal rhythm. […] Expression of mRNA was measured with real-time qPCR. […] Expression of mRNA was measured with real-time qPCR. […]
substance,measurement,setting,value
"4-oxo-3-(2-pyridin-2-ylethylamino)-4,6,7,8-tetrahydro-pyrrolo[1,2-a]pyrazine-6-carboxylic acid 2-ethylcarbamoyl methoxy-benzylamide [S35972]",thrombin time increases by a factor,[1]; 3 mg/kg/day,3
same,thrombin time increases by a factor,[1]; 6 mg/kg/day,3
same,AF duration,[2]; administered 1 month post I/R in rats with dilated atria,tends to decrease AF duration
same,duration of episode of paroxysmal AF,[2]; eight weeks post I/R,decreases the duration of this episode of paroxysmal AF to the control values
same,expression of ANP (mRNA) in the atrium,[3]; atrium,does not impact its expression
same,synthesis of ANP (mRNA) in the ventricle,[3]; ventricle,significantly reduces its synthesis
same,mRNA expression of PAI-1 in atria,[4]; atria,has an inhibitory effect
same,mRNA expression of PAI-1 in ventricles,[4]; ventricles,inhibitory effect in atria only
same,induction of HB-EGF mRNA in atria,[5]; atria,prevents the induction of HB-EGF mRNA
same,induction of HB-EGF mRNA in ventricles,[5]; ventricles,prevents the induction of HB-EGF mRNA
same,synthesis of BNP (mRNA) in the atrium,[6]; atrium,prevents the synthesis of BNP
same,synthesis of BNP (mRNA) in the ventricle,[6]; ventricle,prevents the synthesis of BNP
same,plasma concentration,[7]; 3 mg/kg/day,24.1 ± 5.7 ng/mL
same,plasma concentration,[7]; 6 mg/kg/day,57.2 ± 24.4 ng/mL

# — EP3072514A1, “Novel oral anticoagulants (NOACs) for preventing development and aggravation of atrial fibrillation” (Université Pierre et Marie Curie - Paris 6 (UPMC), priority 2015, dated 2016)
